Test results reported in US20240208992A1, “MACROCYCLES AS CFTR MODULATORS” (Idorsia Pharmaceuticals Ltd, priority 2021, published 2024).
Read-outs that look alike come from different tables or passages of the source. Blank lines part the entries; values can stand above or below the compound they belong to.

What was measured:
[1] = amide bond, 17-membered ring
[2] = from CN[C@@H](CC(C)C)C(=O)N(CCC(C)(C)C)CC(=O)N[C@@H](COc1cc2c(cc1C(=O)N[C@@H](CC(=O)O)C(=O)O)OCO2)Cc1ccccc1; amide bond; pentafluorophenyl diphenylphosphinate (FDPP); DMF/DCM; 67.5 mM; 5.0 h; 11 steps
human F508del-CFTR = human F508del-CFTR (Homo sapiens, UniProt P13569, DEL508-508); assay: F508del-CFTR cell surface expression (corrector activity), DiscoveRx ß-galactosidase complementation chemiluminescence assay in recombinant U2OS cell line; conditions: for EC50: EC50, F508del-CFTR cell surface expression; for Emax: U2OS;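 as to all read-outs here: U2OS cells co-expressing ProLink-tagged F508del-CFTR and a membrane-anchored enzyme acceptor, where more surface CFTR restores β-galactosidase activity measured by chemiluminescence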
[3] = U2OS cells, 16h compound incubation, geomean values
[4] = in relation to Emax of corrector lumacaftor (=100%), arithmetic mean values
[5] = U2OS cells, 16h compound incubation, geomean of several measurements
[6] = in relation to the Emax of the corrector lumacaftor (=100%), U2OS cells, 16h compound incubation, arithmetic mean
[7] = U2OS cell line, 16h compound incubation, geomean values
[8] = in relation to the Emax of the corrector lumacaftor (=100%), U2OS cell line, 16h compound incubation, arithmetic mean values

human F508del-CFTR, sequence (P13569 with tags, fused parts or gaps DEL508-508): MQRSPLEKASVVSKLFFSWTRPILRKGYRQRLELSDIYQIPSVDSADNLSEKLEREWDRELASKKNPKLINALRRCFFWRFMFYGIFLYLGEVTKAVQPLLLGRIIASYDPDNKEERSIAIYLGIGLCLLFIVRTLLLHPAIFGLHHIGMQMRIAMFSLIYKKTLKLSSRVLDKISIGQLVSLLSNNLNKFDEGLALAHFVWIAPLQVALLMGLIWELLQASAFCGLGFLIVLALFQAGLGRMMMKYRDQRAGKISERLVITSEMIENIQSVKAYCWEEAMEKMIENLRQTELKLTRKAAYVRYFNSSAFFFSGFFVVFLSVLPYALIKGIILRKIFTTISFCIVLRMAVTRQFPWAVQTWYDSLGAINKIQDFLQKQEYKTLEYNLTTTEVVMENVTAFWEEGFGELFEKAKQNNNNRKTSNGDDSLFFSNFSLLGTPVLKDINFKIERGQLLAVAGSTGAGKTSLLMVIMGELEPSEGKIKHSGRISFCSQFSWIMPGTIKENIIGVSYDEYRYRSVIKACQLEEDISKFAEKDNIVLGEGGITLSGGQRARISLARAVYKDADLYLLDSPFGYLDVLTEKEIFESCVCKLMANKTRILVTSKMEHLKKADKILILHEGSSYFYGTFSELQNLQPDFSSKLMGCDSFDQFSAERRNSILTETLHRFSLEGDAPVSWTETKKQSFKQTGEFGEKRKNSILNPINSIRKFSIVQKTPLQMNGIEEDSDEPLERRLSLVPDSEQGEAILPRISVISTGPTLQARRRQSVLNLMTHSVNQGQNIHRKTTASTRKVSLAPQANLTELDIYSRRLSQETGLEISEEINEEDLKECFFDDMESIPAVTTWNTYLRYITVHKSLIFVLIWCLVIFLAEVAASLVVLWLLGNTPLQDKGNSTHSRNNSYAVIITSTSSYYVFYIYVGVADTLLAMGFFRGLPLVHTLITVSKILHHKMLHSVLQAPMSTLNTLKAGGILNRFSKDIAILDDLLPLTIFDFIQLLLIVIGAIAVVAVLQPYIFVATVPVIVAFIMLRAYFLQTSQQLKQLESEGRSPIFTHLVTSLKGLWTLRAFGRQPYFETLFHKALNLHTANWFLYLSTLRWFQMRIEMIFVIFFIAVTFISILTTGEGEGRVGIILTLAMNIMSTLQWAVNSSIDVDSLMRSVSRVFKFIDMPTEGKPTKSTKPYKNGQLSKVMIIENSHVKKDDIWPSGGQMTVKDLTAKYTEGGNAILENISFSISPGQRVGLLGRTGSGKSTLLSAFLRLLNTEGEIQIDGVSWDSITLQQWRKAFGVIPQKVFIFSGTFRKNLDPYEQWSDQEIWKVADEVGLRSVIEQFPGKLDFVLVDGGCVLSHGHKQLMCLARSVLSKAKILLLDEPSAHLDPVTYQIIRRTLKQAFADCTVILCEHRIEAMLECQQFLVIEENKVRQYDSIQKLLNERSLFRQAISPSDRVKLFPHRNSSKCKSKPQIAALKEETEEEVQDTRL

Compound: COc1nccc2c1C(=O)N[C@H](C(=O)NCCc1nc(C3CC3)no1)CC(=O)N(C)[C@@H](CC(C)C)C(=O)N(C)C(COCc1ccccc1)C(=O)N[C@H](Cc1ccccc1)CO2 (some centres unmarked)
ring closure, yield after HPLC ([1]; from CN[C@@H](CC(C)C)C(=O)N(C)C(COCc1ccccc1)C(=O)N[C@@H](COc1ccnc(OC)c1C(=O)N[C@@H](CC(=O)O)C(=O)NCCc1nc(C2CC2)no1)Cc1ccccc1, HATU/DIEA, DMF, 60.0 mM): 82%

Compound: (7R,13S,17S)-7-Benzyl-11-(3,3-dimethylbutyl)-13-isobutyl-14-methyl-9,12,15,19-tetraoxo-6,7,8,9,10,11,12,13,14,15,16,17,18,19-tetradecahydro-[1,3]dioxolo[4′,5′:4,5]benzo[1,2-p][1]oxa[4,7,10,14]tetraazacycloheptadecine-17-carboxylic acid
ring closure, yield after HPLC ([1]; FDPP, DMF/DCM, resin, 67.5 mM, with chain assembly): 26%

Compound: CC(C)C[C@H]1C(=O)N(CCC(C)(C)C)CC(=O)N[C@H](Cc2ccccc2)COc2cc3c(cc2C(=O)N[C@H](C(=O)O)CC(=O)N1C)OCO3
ring closure, yield of all isomers [2]: 26%

Compound: COc1cccc(CCNC(=O)[C@@H]2CC(=O)N(C)[C@@H](CC(C)C)C(=O)N(C)[C@H](COCc3ccccc3)C(=O)N[C@H](Cc3ccccc3)COc3ccc4ccccc4c3C(=O)N2)c1 [Example 713, (3S,7S,10R,13R)-13-benzyl-10-((benzyloxy)methyl)-7-isobutyl-N-(3-methoxyphenethyl)-6,9-dimethyl-1,5,8,11-tetraoxo-1,2,3,4,5,6,7,8,9,10,11,12,13,14-tetradecahydronaphtho[1,2-p][1]oxa[4,7,10,14]tetraazacycloheptadecine-3-carboxamide]
EC50 (human F508del-CFTR; [3]): 31 nM
Emax (human F508del-CFTR; [4]): 432%
ring closure, yield after HPLC ([1]; from CN[C@@H](CC(C)C)C(=O)N(C)[C@H](COCc1ccccc1)C(=O)N[C@@H](COc1ccc2ccccc2c1C(=O)N[C@@H](CC(=O)O)C(=O)NCCc1cccc(OC)c1)Cc1ccccc1, HATU/DIEA, DMF, 41.0 mM, 25.0 °C): 82%

Compound: CC(C)C[C@H]1C(=O)N(C[C@H]2COc3ccccc3C2)CC(=O)N[C@H](Cc2ccccc2)COc2ccc3ccccc3c2C(=O)N[C@H](C(=O)NCCc2ccc3c(c2)OCO3)CC(=O)N1C
ring closure, yield after HPLC ([1]; from CN[C@@H](CC(C)C)C(=O)N(CC(=O)N[C@@H](COc1ccc2ccccc2c1C(=O)N[C@@H](CC(=O)O)C(=O)NCCc1ccc2c(c1)OCO2)Cc1ccccc1)C[C@H]1COc2ccccc2C1, HATU/DIEA, DMF, 82.0 mM, 25.0 °C): 97%

Compound: COc1cccc(CCNC(=O)[C@@H]2CC(=O)N(C)[C@@H](CC(C)C)C(=O)N(C)C3(CC3)C(=O)N[C@H](Cc3ccccc3)COc3nc4ccccn4c3C(=O)N2)c1 [Example 442, (3′R,9′S,13′S)-3′-benzyl-9′-isobutyl-N-(3-methoxyphenethyl)-7′,10′-dimethyl-5′,8′,11′,15′-tetraoxo-2′,3′,4′,5′,8′,9′,10′,11′,12′,13′,14′,15′-dodecahydro-7′H-spiro[cyclopropane-1,6′-pyrido[2′,11:2,3]imidazo[4,5-p][1]oxa[4,7,10,14]tetraazacycloheptadecine]-13′-carboxamide]
EC50 (human F508del-CFTR; [3]): 443 nM
Emax (human F508del-CFTR; [4]): 154%

EC50 (human F508del-CFTR; [3]): 707 nM
Emax (human F508del-CFTR; [4]): 162%
Compound: Cc1cc(CCNC(=O)[C@@H]2CC(=O)N(C)[C@@H](CC(C)C)C(=O)N(C[C@H]3CCCC(C)(C)O3)CC(=O)N[C@H](Cc3ccccc3)COc3cnc4ccccc4c3C(=O)N2)on1 [Example 706, (3S,7S,13R)-13-benzyl-9-(((R)-6,6-dimethyltetrahydro-2H-pyran-2-yl)methyl)-7-isobutyl-6-methyl-N-(2-(3-methylisoxazol-5-yl)ethyl)-1,5,8,11-tetraoxo-1,2,3,4,5,6,7,8,9,10,11,12,13,14-tetradecahydro-[1]oxa[4,7,10,14]tetraazacycloheptadecino[17,16-c]quinoline-3-carboxamide]

EC50 (human F508del-CFTR; [5]): 120 nM
Emax (human F508del-CFTR; [6]): 271%
Compound: CC(C)C[C@H]1C(=O)N(C)C2(CC(F)(F)C2)C(=O)N[C@H](Cc2ccccc2)COc2cnc3ccc(F)cc3c2C(=O)N[C@H](C(=O)NCCc2nc(C3CC3)no2)CC(=O)N1C [Example 841, (3′S,7′S,13′R)-13′-benzyl-N-(2-(3-cyclopropyl-1,2,4-oxadiazol-5-yl)ethyl)-3,3,20′-trifluoro-7′-isobutyl-6′,9′-dimethyl-1′,5′,8′,11′-tetraoxo-2′,3′,4′,5′,6′,7′,8′,9′,11′,12′,13′,14′-dodecahydro-1′H-spiro[cyclobutane-1,10′-[1]oxa[4,7,10,14]tetraazacycloheptadecino[17,16-c]quinoline]-3′-carboxamide]

Compound: COc1cccc(CCNC(=O)[C@@H]2CC(=O)N(C)[C@@H](CC(C)C)C(=O)N(CCC3CCCCC3)CC(=O)N[C@H](Cc3ccccc3)COc3ccnc(OC)c3C(=O)N2)c1 [Example 282, (3R,9S,13S)-3-benzyl-7-(2-cyclohexylethyl)-9-isobutyl-16-methoxy-N-(3-methoxyphenethyl)-10-methyl-5,8,11,15-tetraoxo-2,3,4,5,6,7,8,9,10,11,12,13,14,15-tetradecahydropyrido[3,4-p][1]oxa[4,7,10,14]tetraazacycloheptadecine-13-carboxamide]
EC50 (human F508del-CFTR; [7]): 114 nM
Emax (human F508del-CFTR; [8]): 360%

Compound: CC(C)C[C@H]1C(=O)N2CCCC[C@@H]2C(=O)N[C@H](Cc2ccccc2)COc2ccc3c(cnn3C)c2C(=O)N[C@H](C(=O)NCCc2c(F)cccc2F)CC(=O)N1C [Example 490, (8S,12S,18aR,21R)-21-benzyl-N-(2,6-difluorophenethyl)-12-isobutyl-3,11-dimethyl-6,10,13,19-tetraoxo-6,7,8,9,10,11,12,13,16,17,18,18a,19,20,21,22-hexadecahydro-3H,15H-pyrido[2′,1′:6,7][1]oxa[4,7,10,14]tetraazacycloheptadecino[16,17-e]indazole-8-carboxamide]
EC50 (human F508del-CFTR; [3]): 222 nM
Emax (human F508del-CFTR; [4]): 181%

Compound: COc1cccc(CCNC(=O)[C@@H]2CC(=O)N(C)[C@@H](CC(C)C)C(=O)N(C)CC(=O)N[C@H](Cc3ccccc3)COc3cccc(OC(F)(F)F)c3C(=O)N2)c1 [Example 317, (3R,9S,13S)-3-benzyl-9-isobutyl-N-(3-methoxyphenethyl)-7,10-dimethyl-5,8,11,15-tetraoxo-16-(trifluoromethoxy)-2,3,4,5,6,7,8,9,10,11,12,13,14,15-tetradecahydrobenzo[p][1]oxa[4,7,10,14]tetraazacycloheptadecine-13-carboxamide]
EC50 (human F508del-CFTR; [7]): 661 nM
Emax (human F508del-CFTR; [8]): 89%

Compound: CC(C)C[C@H]1C(=O)N(C)[C@H](Cc2nc(C(F)(F)F)no2)C(=O)N[C@H](Cc2ccccc2)COc2cnc3ccc(F)cc3c2C(=O)N[C@H](C(=O)NCCc2noc(C3CC3)n2)CC(=O)N1C [Example 811, (3S,7S,10R,13R)-13-benzyl-N-(2-(5-cyclopropyl-1,2,4-oxadiazol-3-yl)ethyl)-20-fluoro-7-isobutyl-6,9-dimethyl-1,5,8,11-tetraoxo-10-((3-(trifluoromethyl)-1,2,4-oxadiazol-5-yl)methyl)-1,2,3,4,5,6,7,8,9,10,11,12,13,14-tetradecahydro-[1]oxa[4,7,10,14]tetraazacycloheptadecino[17,16-c]quinoline-3-carboxamide]
EC50 (human F508del-CFTR; [5]): 19 nM
Emax (human F508del-CFTR; [6]): 333%

Compound: COc1nccc2c1C(=O)N[C@H](C(=O)NCCc1noc(C3CC3)n1)CC(=O)N(C)[C@@H](CC(C)C)C(=O)N(C)[C@H](COC1CCC1)C(=O)N[C@H](Cc1ccccc1)CO2 [Example 857, (3R,6R,9S,13S)-3-benzyl-6-(cyclobutoxymethyl)-N-(2-(5-cyclopropyl-1,2,4-oxadiazol-3-yl)ethyl)-9-isobutyl-16-methoxy-7,10-dimethyl-5,8,11,15-tetraoxo-2,3,4,5,6,7,8,9,10,11,12,13,14,15-tetradecahydropyrido[3,4-p][1]oxa[4,7,10,14]tetraazacycloheptadecine-13-carboxamide]
EC50 (human F508del-CFTR; [5]): 407 nM
Emax (human F508del-CFTR; [6]): 337%

EC50 (human F508del-CFTR; [7]): 991 nM
Compound: Cc1csc(CCNC(=O)[C@@H]2CC(=O)N(C)[C@@H](CC(C)C)C(=O)N3CCCC[C@@H]3C(=O)N[C@H](Cc3ccccc3)COc3ccc4ncn(C)c4c3C(=O)N2)n1 (mixture of isomers) [Example 23, (8RS,12S,18aR,21R)-21-benzyl-12-isobutyl-5,11-dimethyl-N-(2-(4-methylthiazol-2-yl)ethyl)-6,10,13,19-tetraoxo-6,7,8,9,10,11,12,13,16,17,18,18a,19,20,21,22-hexadecahydro-5H,15H-imidazo[4′,5′:5,6]benzo[1,2-p]pyrido[2,1-f][1]oxa[4,7,10,14]tetraazacycloheptadecine-8-carboxamide]

EC50 (human F508del-CFTR; [7]): 230 nM
Emax (human F508del-CFTR; [8]): 112%
Compound: CC(C)C[C@H]1C(=O)N2CCCC[C@@H]2C(=O)N[C@H](Cc2ccccc2)COc2cnc3ccccc3c2C(=O)N[C@H](C(=O)NCCc2nnc(-c3ccccc3OC(F)(F)F)[nH]2)CC(=O)N1C [Example 88, (9S,13S,19aR,22R)-22-benzyl-13-isobutyl-12-methyl-7,11,14,20-tetraoxo-N-(2-(5-(2-(trifluoromethoxy)phenyl)-4H-1,2,4-triazol-3-yl)ethyl)-7,8,9,10,11,12,13,14,17,18,19,19a,20,21,22,23-hexadecahydro-16H-pyrido[2′,1′:6,7][1]oxa[4,7,10,14]tetraazacycloheptadecino[17,16-c]quinoline-9-carboxamide]
